In patent US20250275987A1, “MODULATORS OF INTRACELLULAR CHLORIDE CONCENTRATION FOR USE IN THE TREATMENT OF COGNITIVE DECLINE” (FONDAZIONE ISTITUTO ITALIANO DI TECNOLOGIA, priority 2022, published 2025):

Experiments:
KCC2 = target: T1, KCC2 (Homo sapiens, UniProt Q9H2X9); test: Thallium influx functional assay (FluxOR Potassium ion channel assay) in HEK293T cells transfected with KCC2; assay type: cell-based
T1 construct: expressed in transfected cells; host or cells: HEK293T
T1 sequence (Q9H2X9 1-1139): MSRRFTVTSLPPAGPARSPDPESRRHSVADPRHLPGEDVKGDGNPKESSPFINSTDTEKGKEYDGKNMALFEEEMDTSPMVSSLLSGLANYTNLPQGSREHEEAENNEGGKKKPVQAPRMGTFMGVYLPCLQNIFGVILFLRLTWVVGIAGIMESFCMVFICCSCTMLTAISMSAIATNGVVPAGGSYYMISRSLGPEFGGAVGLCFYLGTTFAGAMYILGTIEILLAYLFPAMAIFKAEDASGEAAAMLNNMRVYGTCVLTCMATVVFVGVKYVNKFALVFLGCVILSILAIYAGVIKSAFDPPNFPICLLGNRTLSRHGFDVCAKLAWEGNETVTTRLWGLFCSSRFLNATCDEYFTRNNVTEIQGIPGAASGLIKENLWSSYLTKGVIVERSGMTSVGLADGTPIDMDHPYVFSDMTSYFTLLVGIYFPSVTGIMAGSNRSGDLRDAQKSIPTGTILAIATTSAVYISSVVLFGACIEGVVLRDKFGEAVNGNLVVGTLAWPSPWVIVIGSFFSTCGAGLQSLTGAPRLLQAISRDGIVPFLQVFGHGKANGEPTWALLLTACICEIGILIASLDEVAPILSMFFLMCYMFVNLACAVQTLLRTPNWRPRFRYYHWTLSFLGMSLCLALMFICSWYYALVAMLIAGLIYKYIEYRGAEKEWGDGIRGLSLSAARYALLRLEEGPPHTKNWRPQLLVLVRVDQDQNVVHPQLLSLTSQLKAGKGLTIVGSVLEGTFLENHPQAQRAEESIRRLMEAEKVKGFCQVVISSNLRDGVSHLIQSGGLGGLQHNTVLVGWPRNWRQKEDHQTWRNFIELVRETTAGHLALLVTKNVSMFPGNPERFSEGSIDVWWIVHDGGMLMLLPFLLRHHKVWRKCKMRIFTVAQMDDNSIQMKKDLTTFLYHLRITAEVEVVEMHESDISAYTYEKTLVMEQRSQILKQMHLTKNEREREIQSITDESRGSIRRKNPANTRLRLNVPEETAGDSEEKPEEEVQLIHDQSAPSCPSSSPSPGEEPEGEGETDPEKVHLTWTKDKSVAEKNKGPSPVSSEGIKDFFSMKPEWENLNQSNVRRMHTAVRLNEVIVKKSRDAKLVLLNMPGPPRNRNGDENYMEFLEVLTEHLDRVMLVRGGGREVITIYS
Experimental: To verify the efficacy of the compounds to inhibit KCC2 in vitro a functional assay was used (FluxOR Potassium ion channel assay, Life Technologies), which measures the influx of thallium ions (replacing potassium) which permeate into the cell through KCC2. The thallium ions inside the cell are then measured using a Thallium sensor, the fluorescence of which increases after binding with thallium. In particular, the HEK293T cells were transfected with KCC2 or with the empty plasmid (mock control cells). After two days the cells were treated with the thallium sensor and in a solution without chlorine ions. After one hour the cells were washed and treated with furosemide and DMSO as negative control, again in a solution without chlorine ions and in the presence of a sodium/potassium pump inhibitor (ouabain). After twenty minutes the plates were placed in the Tecan Spark reader. The inhibitory activity of furosemide, reported in Table 1, was measured monitoring the fluorescence after thallium (TlSO4) and chlorine (NaCl) application.

elderly mice = test: Object localization (OL) test of spatial memory in elderly mice; assay type: in vivo; conditions: 25 mg/kg i.p., vs vehicle, FIG. 3b
Description: FIG. 3 illustrates the evaluation of the efficacy of furosemide (KCC2 inhibitor) to restore impaired memory in elderly mice. a) Quantification of the discrimination index of the NOR test in young (n=13) and elderly (n=10) mice (two tailed t-test, ** P<0.01). b) Quantification of the discrimination index of the OL test in mice treated with vehicle (young, n=13, elderly, n=7) or furosemide (young, n=11, elderly, n=6) (two-way ANOVA, Tukey post hoc test, * P<0.05).
To evaluate memory capacity in the elderly mice, the novel object recognition (NOR) test was conducted. This test evaluates the long-term object recognition memory by measuring the capacity of the mice to recognize a novel object compared to familiar objects. […] Subsequently, to test the ability of the non-selective KCC2 inhibitor, furosemide, to restore poor memory, the object localization (OL) test was conducted in the presence of the drug. The object localization test evaluates spatial memory by measuring the ability of the mice to recognize the new position of a familiar object. The mice were treated with furosemide (25 mg/kg i.p.) or with the vehicle.

[1] = test system: mice C57BL/6J aged >24 months; test: Open field test after benzodiazepine administration; assay type: in vivo; conditions: elderly mice (>24 months), 2 mg/kg in saline, vs elderly vehicle or young mice treated with diazepam
Description: FIG. 2 illustrates the evaluation of the effect of benzodiazepines in elderly mice which is indicative of a potentiated GABAergic transmission. a) Quantification of the immobility time during the open field test of mice treated with vehicle (young, n=7, elderly, n=6) or diazepam (young, n=7, elderly, n=7) (two-way ANOVA, Tukey post hoc test, *** P<0.001). b) Quantification of the distance travelled during the open field test by mice treated with vehicle (young, n=7, elderly, n=6) or diazepam (young, n=7, elderly, n=7) (two-way ANOVA, Tukey post hoc test, […], *** P<0.001).
In fact, benzodiazepines are positive allosteric modulators of GABAAR. Benzodiazepines are commonly used as anxiolytic drugs, but can produce anxiogenic or highly sedative effects depending on the polarity of GABAergic transmission. To test the reaction of elderly mice to benzodiazepines, mice C57BL/6J aged >24 months and 2-month old controls C57BL/6J were treated with diazepam (2 mg/kg in saline solution) or vehicle (2% DMSO in saline solution). The open field test was then carried out to evaluate locomotor activity and the level of anxiety of the mice tested. […] This is indicative of an over-sedation reaction of the diazepam in the elderly mice, which may reflect the presence of hyper-inhibitory GABAergic transmission. This evidence in accordance with the […] of KCC2 (FIG. 1b).

Row | SMILES | % KCC2 inhibition at 10 μM (KCC2; 10 μM, HEK293T cells transfected with KCC2, thallium fluorescence) | inhibition at 50 µM (KCC2; HEK-293T, 50 μM, HEK293T cells transfected with KCC2, thallium fluorescence) [%] | inhibition at 100 µM (KCC2; HEK-293T, 100 μM, HEK293T cells transfected with KCC2, thallium fluorescence) [%] | IC50 (KCC2; KCC2 inhibition in vitro) [µM] | spatial memory (discrimination index of the OL test) (elderly mice) | immobility time during the open field test ([1]; FIG. 2a) | distance travelled during the open field test ([1]; FIG. 2b)
1 | NS(=O)(=O)c1cc(C(=O)O)c(NCc2ccco2)cc1Cl [Furosemide, furosemide] | Inactive | 39.8 ± 1.6 | 45.1 ± 6.4 | 455 | significantly restored the poor spatial memory of the elderly mice to the level of the young mice |  | 
2 | CN1C(=O)CN=C(c2ccccc2)c2cc(Cl)ccc21 [diazepam] |  |  |  |  |  | significantly higher immobility time | significantly lower distance travelled
